Measurements taken from patent publication US11733246B2, “Compositions, imaging, and therapeutic methods targeting folate receptor 1 (FOLR1)” (Indi Molecular, Inc., priority 2020, dated 2023).
Like-named read-outs stand apart in the source and are kept apart here. Numbered stars: 1 amine (or outer) side, 2 acyl side, 3 side chain; on linkers, the order of the positions; unused ones are H or OH. Bridge positions count the residues as written; N and C are the ends. Square brackets hold non-standard residues; d marks the D form. Triazole bridges read from a SMILES are 1,4-linked. Peptide text beside a SMILES is read from it. * marks the point of attachment. DOTA = O=C(O)CN1CCN(CC(=O)O)CCN(CC(=O)*)CCN(CC(=O)O)CC1; Pteroyl = Nc1nc2ncc(CNc3ccc(C(=O)*)cc3)nc2c(=O)[nH]1; Biotin = O=C1N[C@H]2[C@H](CS[C@H]2CCCCC(=O)*)N1; Butanoyl(4-(4-I-phenyl)) = O=C(CCCc1ccc(I)cc1)*; PEG10 = NCCOCCOCCOCCOCCOCCOCCOCCOCCOCCOCCC(=O)O; Lys(N3) = [N-]=[N+]=NCCCC[C@H](N)C(=O)O; γGlu = O=C(O)[C@H](CCC(=O)[*:2])N[*:1]; AEEEA = NCCOCCOCCOCC(=O)O; Pra = C#CC[C@H](N)C(=O)O

Experiments:
FOLR1 [1] = target: T1, FOLR1 (Homo sapiens, UniProt P15328); experiment: Competition ELISA with folic acid; format: binding
T1 construct: His; purchased SinoBiological 11241-H08H
T1 sequence (P15328 25-234): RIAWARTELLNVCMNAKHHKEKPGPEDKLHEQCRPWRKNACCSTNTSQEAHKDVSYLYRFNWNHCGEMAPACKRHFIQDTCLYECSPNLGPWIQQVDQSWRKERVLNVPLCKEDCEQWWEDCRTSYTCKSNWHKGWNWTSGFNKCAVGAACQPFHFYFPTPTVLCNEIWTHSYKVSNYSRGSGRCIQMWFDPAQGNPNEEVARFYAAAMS
Procedure: A competition experiment was conducted to further understand the binding kinetics of the lead heterobiligand (folate-hshta (SEQ ID NO:6) Nterm heterobiligand).
(§1) Nonclinical studies were first conducted with Folate-hshta-PEG10-PEG10-K(Biotin), where Folate-hshta is the targeting heterobiligand, PEG10 is a deca(ethylene glycol) linker, and K(Biotin) is the detection label. […] Cross reactivity with the murine folate receptor was also observed. […] In the merged image, purple puncta were observed indicating co-localization of internalized heterobiligand with early endosomes (Rab5a+ vesicles) in OVCAR3 cells.

PC3 FOLR1− cells = experiment: Flow cytometry binding to FOLR1 (−) cells; format: cell-based, human
Procedure: (§2) Both the kyeet (SEQ ID NO:9) and hshta (SEQ ID NO:6)-derived biligands were tested by flow cytometry for binding to FOLR1 (+) and FOLR1 (−) cell lines (FIGS. 6 and 7). The human ovarian adenocarcinoma-derived cell line OVCAR3 has robust FOLR1 expression and was selected as the FOLR1 (+) cell line. The human prostate adenocarcinoma-derived cell line PC-3 was selected as a FOLR1 (−) cell line.

FOLR1 [2] = target: T1, FOLR1; experiment: ELISA assay of FOLR1 binding
Description: FIG. 5 is a diagram of ELISA assay of FOLR1 binding of heterobiligands.
Nonclinical studies were first conducted with Folate-hshta-PEG10-PEG10-K(Biotin), where Folate-hshta is the targeting heterobiligand, PEG10 is a deca(ethylene glycol) linker, and K(Biotin) is the detection label.

OVCAR3 FOLR1+ cells = experiment: Flow cytometry binding to FOLR1 (+) cells; format: cell-based, human
Procedure: as §2
Competition at the cellular level was also probed.
Increasing the serum-bound fraction of the peptide may decrease first pass removal of the heterobiligand, and drive compound retention of tumor over kidney. Constructs bearing the known albumin binder 4-methylphenyl butyric acid (4-MPBA) were synthesized. These compounds were evaluated in vitro to verify binding fidelity to FOLR1. The modified heterobiligands were incubated at 400 nM with OVCAR3 and PC-3 cells for 20 minutes at 37° C. in complete media containing 20% FBS. They both bind to OVCAR3 FOLR1+ cells with similar binding affinities as the original heterobiligand studied (FIG. 14). […] Similar activity of these heterobiligands is anticipated in vivo.

OVCAR3 cells = experiment: Cell internalization assay (acid wash, flow cytometry); format: cell-based, human
Procedure: FIG. 10 is a diagram of an assay for assessing cell internalization FOLR1 heterobiligands.
The folate-hshta (SEQ ID NO:6) Nterm heterobiligand was also evaluated in cell penetration imaging assays (FIG. 10). OVCAR3 and PC-3 cells were incubated with the test article at 37° C. for 1 hour. Flow cytometry analysis of the resulting treated cells indicated strong binding to FOLR1 (+) cells. To understand the proportion bound to the surface but not internalized, the cells were briefly washed with acid to liberate the non-internalized peptide.
as §1

[3] = Plasma protein binding (equilibrium dialysis), human; format: in vitro ADME
Procedure: (§3) HTD 96 a/b regenerated cellulose membrane strips with mass cutoff of 12-14 kDa were soaked in ultra-pure water at room temperature for 1 hour. Each swelled membrane was then soaked in 20:80 ethanol:water for 20 minutes.
(§4) Just prior to the experiment, the membranes were re-soaked in ultra-pure water. Plasma was prepared by thawing under cold water. The plasma was centrifuged to remove any clots and pH was adjusted to 7.0-8.0. Test articles and control compounds were diluted to 2 μM. The dialysis device was loaded by transferring 150 μL of the test article (in triplicate) to the donor side. The dialysis device was placed in a humidified incubator at 37° C. with 5% CO2 in a shaking platform that rotated slowly for 4 hours. After incubation, 50 μL of the supernatant was taken from both sides and analyzed by LC-MS/MS.
(§5) To optimize the albumin binding potential of the heterobiligand, a plasma protein binding (PPB) experiment was performed. This experiment measured the amount of test article bound and free after equilibrating with plasma. Compound #6305 (folate-hshta-Lys(MPBA)-Gly-Phe-Lys(DOTA) (SEQ ID NO:6)), which contains the MPBA albumin binder, was 96.26% bound to mouse plasma and 98.34% bound to human plasma. […] In mouse and human plasmas 99.6% and 99.5% was bound, respectively.

human plasma proteins = experiment: as above; format: in vitro ADME; settings: human, plasma
Procedure: as §3, §4, §5

[4] = Plasma protein binding (equilibrium dialysis), mouse; format: in vitro ADME, CD-1 mouse
Procedure: as §3, §4, §5

mouse plasma proteins = experiment: as above; format: in vitro ADME, CD-1 mouse; settings: mouse, plasma
Procedure: as §3, §4, §5

human recombinant NEP = human recombinant NEP (Homo sapiens, UniProt P08473); format: biochemical
Chain of human recombinant NEP (P08473 whole entry): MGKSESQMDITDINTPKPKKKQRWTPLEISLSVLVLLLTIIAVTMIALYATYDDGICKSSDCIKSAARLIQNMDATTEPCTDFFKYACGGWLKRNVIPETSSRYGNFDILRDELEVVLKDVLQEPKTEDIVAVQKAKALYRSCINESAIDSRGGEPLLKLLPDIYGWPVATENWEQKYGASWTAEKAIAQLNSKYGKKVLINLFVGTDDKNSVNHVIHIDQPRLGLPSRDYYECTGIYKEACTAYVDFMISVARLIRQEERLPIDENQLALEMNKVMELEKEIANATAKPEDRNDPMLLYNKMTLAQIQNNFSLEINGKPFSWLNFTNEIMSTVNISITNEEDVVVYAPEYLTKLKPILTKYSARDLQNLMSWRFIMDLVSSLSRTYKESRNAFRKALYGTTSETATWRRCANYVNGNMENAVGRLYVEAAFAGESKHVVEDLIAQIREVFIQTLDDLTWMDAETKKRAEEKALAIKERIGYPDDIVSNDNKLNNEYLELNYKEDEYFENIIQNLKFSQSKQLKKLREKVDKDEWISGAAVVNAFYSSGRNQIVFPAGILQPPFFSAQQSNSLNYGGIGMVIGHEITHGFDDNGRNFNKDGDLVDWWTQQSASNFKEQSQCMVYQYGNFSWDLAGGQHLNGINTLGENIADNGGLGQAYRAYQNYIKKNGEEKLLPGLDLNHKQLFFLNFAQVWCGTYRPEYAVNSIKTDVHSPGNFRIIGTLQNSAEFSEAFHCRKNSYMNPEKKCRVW
Procedure: In order to test the susceptibility of GFK and MVK linkers to NEP-mediated cleavage, the peptide (Folate-hshta-Lys(MPBA)-Gly-Phe-Lys(DOTA) (SEQ ID NO:6)) was incubated with human recombinant NEP and analyzed the solution for the presence of cleaved adducts. MALDI was utilized to monitor the cleavage of a PCC heterobiligand that contains a NEP protease recognizable sequence (G-F-K). The PCC concentration was constant and the NEP concentration was titrated down from 10 nM to 1 nM, 0.1 nM, 0.01 nM, and no NEP. The NEP-mediated cleaved adduct was identified by mass. 10 μM PCC containing the GFK linker was combined with varying amounts of NEP. […] Below 0.1 nM no cleavage was observed. • Folate-hshta-Lys(MPBA)-Gly-Phe-Lys(DOTA) (SEQ ID NO:6) • Molecular weight 2231.42
The NEP-mediated cleavage was also monitored by HPLC. In agreement with the MALDI spectra, the HPLC chromatograms show depletion of the parent brush-border heterobiligand (retention time 17.1 minutes), dose-dependent on the amount of NEP spiked into the sample (10 nM, 1 nM, 0.1 nM, 0.01 nM, and no NEP). An appearance of a new peak (retention time 16.5 minutes) in concert with the depletion of the starting material is presumed to be the cleaved folate-containing peptide.
In order to test the specificity of NEP, a non-cleavable linker (PEG3) was also assayed.
To reduce the radioactive dose to the kidney, Indi ^177Lu-7327 was constructed to incorporate a GFK linker that is susceptible to cleavage by enzymes found predominately in the kidney's brush border. These enzymes cleave off the radionuclide-chelator complex, which is quickly eliminated by the kidney for excretion in the urine. The zinc metalloprotease neprilysin (NEP) is expressed with high abundance in the kidney. […] To confirm NEP-mediated cleavage of the GFK linker in Indi 7327, the peptide was incubated with recombinant human NEP at 37° C. for 1 h and analyzed by matrix-assisted laser desorption/ionization mass spectrometry (MALDI-MS) for the evolution of cleaved adducts (FIG. 42). […] The expected cleaved adduct (mass: 1283.16 m/z) appears in the samples containing 10, 1.0, and 0.1 nM NEP. […] Below 0.1 nM NEP, no cleavage was observed. In addition to confirming the selectivity of NEP for the GFK linker, it is also important to note that the remaining portions of the Indi 7327 were impervious to the enzyme.

in vitro [5] = settings: human, plasma, pH 7.4, Plasma Stability (t 1/2)
Procedure: (§6) Plasma was thawed in a 37° C. water bath. Residual clots were removed via centrifugation at 4000 rpm for 5 minutes. The pH of the plasma was adjusted to 7.4 if required. Test articles were diluted to 100 μM by diluting a 1 mM working solution (in DMSO) with 45% methanol in water. To 98 μL of plasma was added 2 μL of the 100 μM solution, resulting in 2 μM final concentration of the test article. Samples were incubated at 37° C. in a water bath. At the indicated time points (0, 10, 30, 60, 120 minutes) 100 μL of 4% H3PO4 was added followed by 800 μL of stop solution (200 ng/mL tolbutamide and 200 ng/mL labetalol in 100% acetonitrile). The samples were centrifuged and the plasma protein-free supernatant (100 μL) was subjected to LC-MS/MS analysis.

in vitro [6] = settings: CD-1, mouse, plasma, pH 7.4, Plasma Stability (t 1/2)
Procedure: as §6

[7] = target: mouse recombinant FOLR1 (rMuFOLR1) (Mus musculus, UniProt P35846); experiment: ELISA binding to mouse recombinant FOLR1
Chain of mouse recombinant FOLR1 (rMuFOLR1) (P35846 25-232): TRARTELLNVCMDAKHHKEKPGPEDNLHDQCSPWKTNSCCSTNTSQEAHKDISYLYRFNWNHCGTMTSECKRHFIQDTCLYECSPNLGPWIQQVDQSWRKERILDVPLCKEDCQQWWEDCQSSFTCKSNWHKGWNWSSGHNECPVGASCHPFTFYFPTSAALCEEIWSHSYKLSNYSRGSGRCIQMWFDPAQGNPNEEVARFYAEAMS
Description: Further evaluation of the folate-hshta (SEQ ID NO:6) Nterm heterobiligand depended on cross reactivity with mouse recombinant FOLR1 (rMuFOLR1). The heterobiligand binds to both species' variants of FOLR1 with high affinity. This observation was expected given the high homology between the two variants (approximately 92%).

## C[C@H](O)[C@H]1NC(=O)[C@@H](Cc2c[nH]cn2)NC(=O)[C@@H](CO)NC(=O)[C@@H](Cc2c[nH]cn2)NC(=O)[C@@H](NC(=O)CC[C@H](NC(=O)c2ccc(NCc3cnc4nc(N)[nH]c(=O)c4n3)cc2)C(=O)O)Cc2cn(nn2)CCCC[C@@H](C(=O)NCCOCCOCCOCCOCCOCCOCCOCCOCCOCCOCCC(=O)NCCOCCOCCOCCOCCOCCOCCOCCOCCOCCOCCC(=O)N[C@@H](CCCCNC(=O)CCCC[C@@H]2SC[C@@H]3NC(=O)N[C@@H]32)C(N)=O)NC(=O)[C@@H](C)NC1=O [Folate-hshta Nterm, Folate-hshta-PEG10-PEG10-K(Biotin)] ({Pteroyl-γGlu}-[Pra][dH][dS][dH][dT][dA][Lys(N3)][PEG10][PEG10]K(Biotin)-NH2; triazole 1-7)
FOLR1 [1]
  displacement by exogenous folate in competitive ELISA: resilient to displacement by exogenous folate
FOLR1 [1]; folic acid from 0 to 500 nM
  binding affinity of the heterobiligand in presence of folic acid: virtually unchanged
FOLR1 [1]; folic acid greater than 500 nM
  competition by folic acid: partially compete away
PC3 FOLR1− cells
  binding of PC3 FOLR1− cells: low non-specific binding
FOLR1 [2]; ELISA
  affinity relative to folate itself: ~30 fold
OVCAR3 FOLR1+ cells; 0.1 μg/mL folate
  percentage of OVCAR3 cells binding: 57%
OVCAR3 FOLR1+ cells; OVCAR3 vs PC-3, flow cytometry
  selectivity for FOLR1 (+) cells over FOLR1 (−) cells: high selectivity for FOLR1 (+) cells
OVCAR3 FOLR1+ cells; flow cytometry
  binding against OVCAR3 FOLR1+ cells: Dose-dependent binding
  selectivity compared with commercially available FOLR1 antibody: superior to a commercially available FOLR1 antibody
OVCAR3 FOLR1+ cells; flow cytometry, listed as lead heterobiligand
  binding against OVCAR3 FOLR1+ cells: best binding
OVCAR3 FOLR1+ cells; increasing exogenous folic acid, flow cytometry
  displacement by exogenous folic acid at the cellular level: more resilient to folic acid displacement than biotinylated folic acid
OVCAR3 FOLR1+ cells; no folate
  percentage of OVCAR3 cells binding: 76.6%
OVCAR3 cells; OVCAR3, 37° C. 1 hour, before acid treatment
  percentage of positively stained cells: 73.4%
OVCAR3 cells; OVCAR3, following acid treatment
  percentage of positively stained cells: 54.2%

## C[C@H](O)[C@H]1NC(=O)[C@@H](Cc2c[nH]cn2)NC(=O)[C@@H](CO)NC(=O)[C@@H](Cc2c[nH]cn2)NC(=O)[C@@H](NC(=O)CC[C@H](NC(=O)c2ccc(NCc3cnc4nc(N)[nH]c(=O)c4n3)cc2)C(=O)O)Cc2cn(nn2)CCCC[C@@H](C(=O)N[C@@H](CCCCNC(=O)CCCc2ccc(I)cc2)C(=O)NCC(=O)N[C@@H](Cc2ccccc2)C(=O)N[C@@H](CCCCNC(=O)CN2CCN(CC(=O)O)CCN(CC(=O)O)CCN(CC(=O)O)CC2)C(=O)O)NC(=O)[C@@H](C)NC1=O [compound #1307, Fol-hshta-Lys(4-IPBA)-Gly-Phe-Lys(DOTA)] ({Pteroyl-γGlu}-[Pra][dH][dS][dH][dT][dA][Lys(N3)]K(Butanoyl(4-(4-I-phenyl)))GFK(DOTA)-OH; triazole 1-7)
[3]
  recovery: 84.4%
Human plasma proteins
  Plasma % Bound: Hu: 99.50%
[4]
  recovery: 87.7%
Mouse plasma proteins
  Plasma % Bound: Mu: 99.60%
Human recombinant NEP
  in vitro Assay Data (NEP assay): Cleavage of -G-F-K-

## C[C@H](O)[C@H]1NC(=O)[C@@H](Cc2cnc[nH]2)NC(=O)[C@@H](CO)NC(=O)[C@@H](Cc2cnc[nH]2)NC(=O)[C@@H](NC(=O)CC[C@H](NC(=O)c2ccc(NCc3cnc4nc(N)[nH]c(=O)c4n3)cc2)C(=O)O)Cc2cn(nn2)CCCC[C@@H](C(=O)NCC(=O)N[C@@H](Cc2ccccc2)C(=O)N[C@@H](CCCCNC(=O)CN2CCN(CC(=O)O)CCN(CC(=O)O)CCN(CC(=O)O)CC2)C(=O)O)NC(=O)[C@@H](C)NC1=O [compound #7327, Fol-hshta-Gly-Phe-Lys(DOTA)] ({Pteroyl-γGlu}-[Pra][dH][dS][dH][dT][dA][Lys(N3)]GFK(DOTA)-OH; triazole 1-7)
In vitro [5]
  half-life at 2 μM: > 115 h
[3]; human
  recovery at 4 h, 2 μM: 113%
[3]; human, plasma
  fraction unbound at 4 h, 2 μM: 0.597
[4]; CD-1, mouse
  recovery at 4 h, 2 μM: 102%
[4]; CD-1, mouse, plasma
  fraction unbound at 4 h, 2 μM: 0.591
In vitro [6]
  half-life at 2 μM: > 115 h
Human recombinant NEP
  in vitro Assay Data (NEP assay): Cleavage of -G-F-K-

## C[C@H](O)[C@H]1NC(=O)[C@@H](Cc2c[nH]cn2)NC(=O)[C@@H](CO)NC(=O)[C@@H](Cc2c[nH]cn2)NC(=O)[C@@H](NC(=O)COCCOCCOCCNC(=O)CCCC[C@@H]2SC[C@@H]3NC(=O)N[C@@H]32)Cc2cn(nn2)CCCC[C@@H](C(N)=O)NC(=O)[C@@H](C)NC1=O [hshta] ({Biotin-AEEEA}-[Pra][dH][dS][dH][dT][dA][Lys(N3)]-NH2; triazole 1-7)
[7]
  EC50: 2.1 µM
FOLR1 [2]; Human FOLR1, read-out: Ec50
  EC50: 3.4 µM
FOLR1 [2]; read-out: EC50 (ELISA, FOLR1)
  EC50: 3.92 µM
